Experimental data reported in patent publication US7504420B2, “Compounds which inhibit beta-secretase activity and methods of use” (CoMentis, Inc., priority 2005, dated 2009).

Tests used:
memapsin 2 = memapsin 2 (Homo sapiens, UniProt P56817); test: Inhibition of memapsin 2 catalytic activity (Ki); assay type: biochemical; details: memapsin 2, pH 4, 37° C.; read-out: M2K
Summary of the method: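 Run at 37 °C and pH 4: compound and enzyme pre-incubated 20 min before FS-2 fluorogenic substrate started hydrolysis,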

cathepsin D = cathepsin D (Homo sapiens, UniProt P07339); test: Inhibition of cathepsin D catalytic activity (Ki); assay type: biochemical; details: pH 4.0, 37° C., read-out: CDK
[1] = tested on: Aβ production in Chinese hamster ovary cells that over-express human APP695 with the London and Swedish mutations; test: Cellular Aβ IC50 determination (Aβ40 sandwich ELISA); details: Cricetulus griseus, CHO, 24 h, read-out: Cell, Aβ40, CHO cells over-expressing human APP695 (London and Swedish mutations), 24 h
Procedure: The potency of compounds against memapsin 2 catalytic activity was determined in a cellular assay of Aβ production. […] Compounds are dissolved in DMSO to concentrations near 1 mM, and diluted into culture media to a final concentration near 4 μM (final 0.4% DMSO). Compounds were diluted serially and applied to cells in multi-well plates 48 h after seeding. Incubation was continued in 5% CO2 at 37 degrees C. for 24 h. Aliquots were removed and assayed for Aβ40 content using a sandwich ELISA (BioSource International). Amount of Aβ40 over the range of concentration of compounds, relative to control incubations, were fit to a 4-parameter IC50 model.

Chain of memapsin 2 (P56817 46-501): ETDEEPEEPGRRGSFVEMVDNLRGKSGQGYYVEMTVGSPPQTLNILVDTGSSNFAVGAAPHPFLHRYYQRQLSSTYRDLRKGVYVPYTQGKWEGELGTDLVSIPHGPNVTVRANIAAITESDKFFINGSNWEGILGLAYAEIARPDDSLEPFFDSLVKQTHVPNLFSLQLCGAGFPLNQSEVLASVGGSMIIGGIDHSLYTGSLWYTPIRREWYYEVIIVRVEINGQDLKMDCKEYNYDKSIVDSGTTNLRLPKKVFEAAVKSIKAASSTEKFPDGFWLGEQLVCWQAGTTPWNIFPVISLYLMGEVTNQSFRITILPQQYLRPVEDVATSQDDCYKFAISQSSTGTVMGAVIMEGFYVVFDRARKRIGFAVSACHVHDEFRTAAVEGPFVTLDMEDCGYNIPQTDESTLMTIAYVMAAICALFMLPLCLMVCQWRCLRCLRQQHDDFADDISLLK
Chain of cathepsin D (P07339 65-412, species assumed): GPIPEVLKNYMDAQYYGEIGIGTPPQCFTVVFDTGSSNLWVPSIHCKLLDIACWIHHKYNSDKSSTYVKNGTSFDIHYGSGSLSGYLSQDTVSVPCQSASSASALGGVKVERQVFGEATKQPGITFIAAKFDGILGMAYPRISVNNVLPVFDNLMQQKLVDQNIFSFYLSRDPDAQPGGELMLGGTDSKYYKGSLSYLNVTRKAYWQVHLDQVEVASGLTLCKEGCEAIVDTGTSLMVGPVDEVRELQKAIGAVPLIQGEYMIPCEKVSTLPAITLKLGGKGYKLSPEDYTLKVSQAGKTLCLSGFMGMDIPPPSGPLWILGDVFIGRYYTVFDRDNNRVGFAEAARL

CC(NC(=O)c1cc(C(=O)NC(Cc2ccccc2)C(O)CNCc2cccc(OC(F)F)c2)cc(N(C)S(C)(=O)=O)c1)c1ccccc1 (stereo not drawn) [N1-(4-(3-(difluoromethoxy)benzylamino)-3-hydroxy-1-phenylbutan-2-yl)-5-(N-methylmethylsulfonamido)-N3-(1-phenylethyl)isophthalamide]
Ki (memapsin 2): < 300 nM | Ki (cathepsin D): < 300 nM | IC50 [1]: < 1000 nM

CC(NC(=O)c1cc(C(=O)NC(Cc2ccccc2)C(O)CNCc2cccc(N(C)C)c2)cc(N(C)S(C)(=O)=O)c1)c1ccccc1 (stereo not drawn) [N1-(4-(3-(dimethylamino)benzylamino)-3-hydroxy-1-phenylbutan-2-yl)-5-(N-methylmethylsulfonamido)-N3-(1-phenylethyl)isophthalamide]
Ki (memapsin 2): < 300 nM | Ki (cathepsin D): > 501 nM | IC50 [1]: < 1000 nM

CC(NC(=O)c1cc(C(=O)NC(Cc2ccccc2)C(O)CNCc2cccc(CF)c2)cc(N(C)S(C)(=O)=O)c1)c1ccccc1 (stereo not drawn) [N1-(4-(3-(fluoromethyl)benzylamino)-3-hydroxy-1-phenylbutan-2-yl)-5-(N-methylmethylsulfonamido)-N3-(1-phenylethyl)isophthalamide]
Ki (memapsin 2): < 300 nM | Ki (cathepsin D): < 300 nM | IC50 [1]: < 1000 nM

Cc1csc(CN(C)C(=O)c2cccc(C(=O)NC(Cc3ccccc3)C(O)CNCc3cccc(CF)c3)c2)n1 (stereo not drawn) [N1-(4-(3-(fluoromethyl)benzylamino)-3-hydroxy-1-phenylbutan-2-yl)-N3-methyl-N3-((4-methylthiazol-2-yl)methyl)isophthalamide]
Ki (memapsin 2): < 300 nM | Ki (cathepsin D): < 300 nM | IC50 [1]: < 1000 nM

CCc1cccc(CNCC(O)C(Cc2ccccc2)NC(=O)c2cc(C(=O)NC(C)c3ccccc3)cc(N(C)S(C)(=O)=O)c2)c1 (stereo not drawn) [N1-(4-(3-ethylbenzylamino)-3-hydroxy-1-phenylbutan-2-yl)-5-(N-methylmethylsulfonamido)-N3-(1-phenylethyl)isophthalamide]
Ki (memapsin 2): < 300 nM | Ki (cathepsin D): < 300 nM | IC50 [1]: < 1000 nM

CCc1cccc(CNCC(O)C(Cc2ccccc2)NC(=O)c2cccc(C(=O)N(C)Cc3nc(C)cs3)c2)c1 (stereo not drawn) [N1-(4-(3-ethylbenzylamino)-3-hydroxy-1-phenylbutan-2-yl)-N3-methyl-N3-((4-methylthiazol-2-yl)methyl)isophthalamide]
Ki (memapsin 2): < 300 nM | Ki (cathepsin D): < 300 nM | IC50 [1]: < 1000 nM

CC(NC(=O)c1cc(C(=O)NC(Cc2ccccc2)C(O)CNCc2nc3ccccc3[nH]2)cc(N(C)S(C)(=O)=O)c1)c1ccccc1 (stereo not drawn) [N1-(4-((1H-benzo[d]imidazol-2-yl)methylamino)-3-hydroxy-1-phenylbutan-2-yl)-5-(N-methylmethylsulfonamido)-N3-(1-phenylethyl)isophthalamide]
Ki (memapsin 2): < 300 nM | Ki (cathepsin D): < 300 nM | IC50 [1]: 1000 to 5000 nM

CC(NC(=O)c1cc(C(=O)NC(Cc2ccccc2)C(O)CNCc2cncc(N(C)C)c2)cc(N(C)S(C)(=O)=O)c1)c1ccccc1 (stereo not drawn) [N1-(4-((5-(dimethylamino)pyridin-3-yl)methylamino)-3-hydroxy-1-phenylbutan-2-yl)-5-(N-methylmethylsulfonamido)-N3-(1-phenylethyl)isophthalamide]
Ki (memapsin 2): < 300 nM | Ki (cathepsin D): 301 to 500 nM | IC50 [1]: < 1000 nM

CCc1cncc(CNCC(O)C(Cc2ccccc2)NC(=O)c2cc(C(=O)NC(C)c3ccccc3)cc(N(C)S(C)(=O)=O)c2)c1 (stereo not drawn) [N1-(4-((5-ethylpyridin-3-yl)methylamino)-3-hydroxy-1-phenylbutan-2-yl)-5-(N-methylmethylsulfonamido)-N3-(1-phenylethyl)isophthalamide]
Ki (memapsin 2): < 300 nM | Ki (cathepsin D): < 300 nM | IC50 [1]: < 1000 nM

CCc1cncc(CNCC(O)C(Cc2ccccc2)NC(=O)c2cccc(C(=O)N(C)Cc3nc(C)cs3)c2)c1 (stereo not drawn) [N1-(4-((5-ethylpyridin-3-yl)methylamino)-3-hydroxy-1-phenylbutan-2-yl)-N3-methyl-N3-((4-methylthiazol-2-yl)methyl)isophthalamide]
Ki (memapsin 2): < 300 nM | Ki (cathepsin D): < 300 nM | IC50 [1]: < 1000 nM

CC(NC(=O)c1cc(C(=O)NC(Cc2ccccc2)C(O)CNCc2cncc(F)c2)cc(N(C)S(C)(=O)=O)c1)c1ccccc1 (stereo not drawn) [N1-(4-((5-fluoropyridin-3-yl)methylamino)-3-hydroxy-1-phenylbutan-2-yl)-5-(N-methylmethylsulfonamido)-N3-(1-phenylethyl)isophthalamide]
Ki (memapsin 2): < 300 nM | Ki (cathepsin D): < 300 nM | IC50 [1]: < 1000 nM

CC(NC(=O)c1cc(C(=O)NC(Cc2ccccc2)C(O)CNCC2CCN(C(=O)OCc3ccccc3)CC2)cc(N(C)S(C)(=O)=O)c1)c1ccccc1 (stereo not drawn) [benzyl 4-((2-hydroxy-3-(3-(N-methylmethylsulfonamido)-5-(1-phenylethylcarbamoyl)benzamido)-4-phenylbutylamino)methyl)piperidine-1-carboxylate]
Ki (memapsin 2): < 300 nM | Ki (cathepsin D): < 300 nM | IC50 [1]: 1000 to 5000 nM
